Drawing on patent US20250042889A1, “3CLPRO PROTEASE INHIBITOR” (SHANGHAI QILU PHARMACEUTICAL RESEARCH AND DEVELOPMENT …, priority 2021, published 2025), this text covers IC50 for 40 molecules.

In this test the target is SARS-COV-2 3CLpro/Mpro protease (Severe acute respiratory syndrome coronavirus 2 (2019-nCoV) (SARS-CoV-2), UniProt P0DTD1). Briefly: Inhibitory effect on SARS-COV-2 3CLpro/Mpro protease by fluorescence resonance energy transfer. It is filed as biochemical. To be noted: activity intervals A-D.
Setting [1] is: read-out: IC50 (nM), Inhibition on SARS-CoV-2 3CLpro/Mpro protease.
The mark [2] stands for this setting: IC50 (nM), Inhibition on SARS-CoV-2 3CLpro/Mpro protease.

The structures appear in SMILES notation. Where two headings read alike, the source gives them in different places.

For `CNc1cncc(C(=O)N2CCC[C@@H](Nc3c(C(=O)N4CCC(F)(F)C4)cc(Br)cc3[N+](=O)[O-])C2)c1` [Example 255], the IC50 under setting [1] lay within 10 to 50 nM. Still for that read-out and setting: then `CNc1cncc(C(=O)N2CCC[C@@H](Nc3c(C(=O)N4CCC[C@H](C)C4)cc(Br)cc3[N+](=O)[O-])C2)c1` [Example 256], with 10 to 50 nM. In the case of `CNc1cncc(C(=O)N2CCC[C@@H](Nc3c(C(=O)N4C[C@@H](C)C[C@H](C)C4)cc(Br)cc3[N+](=O)[O-])C2)c1` [Example 257], the IC50 under setting [1] fell in the range of 10 to 50 nM. Still for that read-out and setting: for `CNc1cncc(C(=O)N2CCC[C@@H](Nc3c(C(=O)N4CC(C)CC(O)C4)cc(Br)cc3[N+](=O)[O-])C2)c1` (stereo partly shown) [Example 258] the value was 10 to 50 nM; for `CNc1cncc(C(=O)N[C@H]2CCOC[C@H]2Nc2c(C(=O)N3C[C@@H](C)O[C@H](C)C3)cc(Br)cc2[N+](=O)[O-])c1` [Example 259], 10 to 50 nM. The same measure, in the same setting: for `CCNc1cncc(C(=O)N2CCC[C@@H](Nc3c(C(=O)N4CCCCC4)cc(Br)cc3[N+](=O)[O-])C2)c1` [Example 260] the value was 10 to 50 nM. On the same count and under the same terms, then `CSc1cncc(C(=O)N2CCC[C@@H](Nc3c(C(=O)N4CCCCC4)cc(Br)cc3[N+](=O)[O-])C2)c1` [Example 261], with 10 to 50 nM; and `C[C@H]1C[C@H](C)CN(C(=O)c2cc(Br)cc([N+](=O)[O-])c2N[C@@H]2CCCN(C(=O)[C@H]3CC(=O)N[C@@H](C)C3)C2)C1` [Example 262], with 10 to 50 nM. Take `CNc1cncc(C(=O)N2CCC[C@@H](Nc3c(C(=O)N4CC(N)CC(F)(F)C4)cc(Br)cc3[N+](=O)[O-])C2)c1` (stereo partly shown) [Example 263]: the IC50 under setting [1] lay within 10 to 50 nM. On the same count and under the same terms, then `O=C1C[C@H](C(=O)N2CCC[C@@H](Nc3c(C(=O)N4CCCCC4)cc(Br)cc3[N+](=O)[O-])C2)c2ccccc2N1` [Example 264], with 10 to 50 nM; and `O=C1C[C@@H](C(=O)N2CCC[C@@H](Nc3c(C(=O)N4CCCCC4)cc(Br)cc3[N+](=O)[O-])C2)c2ccccc2N1` [Example 265], with 10 to 50 nM. On to `CNc1cncc(C(=O)N2CCC[C@@H](Nc3c(C(=O)N4CC5CC(C4)O5)cc(Br)cc3[N+](=O)[O-])C2)c1` [Example 266], for which the IC50 under setting [2] lay in the range of 10 to 50 nM. On to `CNc1cncc(C(=O)N2CCC[C@@H](Nc3c(C(=O)N4CCc5ccsc5C4)cc(Br)cc3[N+](=O)[O-])C2)c1` [Example 267], for which, under setting [1], the IC50 lay within 10 to 50 nM. Take `CNc1cncc(C(=O)N2CCC[C@@H](Nc3c(C(=O)N4CCC5(CCCO5)CC4)cc(Br)cc3[N+](=O)[O-])C2)c1` [Example 268]: under setting [1], the IC50 is below 10 nM. Take `CNc1cncc(C(=O)N2CCC[C@@H](Nc3c(C(=O)N4CC5CCC(C4)O5)cc(Br)cc3[N+](=O)[O-])C2)c1` [Example 269]: the IC50 under setting [1] lay within 10 to 50 nM. Still for that read-out and setting: then `CNc1cncc(C(=O)N2CCC[C@@H](Nc3c(C(=O)N4CCC5(CCCCO5)CC4)cc(Br)cc3[N+](=O)[O-])C2)c1` [Example 270], with 10 to 50 nM; and `CNc1cncc(C(=O)N2CCC[C@@H](Nc3c(C(=O)N4Cc5cccnc5C4)cc(Br)cc3[N+](=O)[O-])C2)c1` [Example 271], with 10 to 50 nM. On the same count and under the same terms, for `CNc1cncc(C(=O)N2CCC[C@@H](Nc3c(C(=O)N4CCC5(CCNCC5)CC4)cc(Br)cc3[N+](=O)[O-])C2)c1` [Example 272] the value was 10 to 50 nM; for `CNc1cncc(C(=O)N2CCC[C@@H](Nc3c(C(=O)N4CC(F)(F)C(F)(F)C4)cc(Br)cc3[N+](=O)[O-])C2)c1` [Example 273], 10 to 50 nM.

For the molecule `C[C@@H]1CN(C(=O)c2cc(Br)cc([N+](=O)[O-])c2N[C@@H]2CCCN(C(=O)[C@H]3CC(=O)Nc4ccccc43)C2)C[C@H](C)O1` [Example 274], the IC50 under setting [1] is below 10 nM. `CNc1cncc(C(=O)N2CCC[C@@H](Nc3c(C(=O)N4CCC(C)(OC)CC4)cc(Br)cc3[N+](=O)[O-])C2)c1` [Example 275]: under setting [1], the IC50 fell in the range of 10 to 50 nM. The molecule `CNc1cncc(C(=O)N2CCC[C@@H](Nc3c(C(=O)N4CC5CCC(C4)N5)cc(Br)cc3[N+](=O)[O-])C2)c1` [Example 276] had an IC50 under setting [2] of 10 to 50 nM. Take `CNc1cncc(C(=O)N2CCC[C@@H](Nc3c(C(=O)N4CCc5sccc5C4)cc(Br)cc3[N+](=O)[O-])C2)c1` [Example 277]: the IC50 under setting [1] lay in the range of 10 to 50 nM. On the same count and under the same terms, for `CNc1cncc(C(=O)N2CCC[C@@H](Nc3c(C(=O)N4Cc5c[nH]nc5C4)cc(Br)cc3[N+](=O)[O-])C2)c1` [Example 278] the value was 10 to 50 nM.

As for `CNc1cncc(C(=O)N2CCC[C@@H](Nc3c(C(=O)N4CCC(F)(F)CC4)cc(Br)cc3[N+](=O)[O-])C2)c1` [Example 279], the IC50 under setting [1] fell in the range of 10 to 50 nM.

Consider `CNc1cncc(C(=O)N2CCC[C@@H](Nc3c(C(=O)N4CCC5(CCCN5)CC4)cc(Br)cc3[N+](=O)[O-])C2)c1` [Example 280], for which the IC50 under setting [1] fell in the range of 10 to 50 nM.

Turning to `CNc1cncc(C(=O)N2CCC[C@@H](Nc3c(C(=O)N4CCC(OC)(C(F)(F)F)CC4)cc(Br)cc3[N+](=O)[O-])C2)c1` [Example 281], the IC50 under setting [1] is 50 to 100 nM.

Consider `C[C@@H]1CN(C(=O)c2cc(Br)cc([N+](=O)[O-])c2N[C@@H]2CCCN(C(=O)[C@H]3CC(=O)Nc4ccccc43)C2)CCO1` [Example 282], for which, under setting [1], the IC50 lay within 10 to 50 nM. Regarding `C[C@H]1CN(C(=O)c2cc(Br)cc([N+](=O)[O-])c2N[C@@H]2CCCN(C(=O)[C@H]3CC(=O)Nc4ccccc43)C2)CCO1` [Example 283], the IC50 under setting [1] was 10 to 50 nM.

Take `CNc1cncc(C(=O)N2CCC[C@@H](Nc3c(C(=O)N4Cc5cnn(C)c5C4)cc(Br)cc3[N+](=O)[O-])C2)c1` [Example 284]: under setting [1], the IC50 is 10 to 50 nM. On the same count and under the same terms, for `CNc1cncc(C(=O)N2CCC[C@@H](Nc3c(C(=O)N4CCC5(CCO5)CC4)cc(Br)cc3[N+](=O)[O-])C2)c1` [Example 285] the value was 10 to 50 nM; for `CNc1cncc(C(=O)N2CCC[C@@H](Nc3c(C(=O)N4CCO[C@H](C(F)(F)F)C4)cc(Br)cc3[N+](=O)[O-])C2)c1` [Example 286], 10 to 50 nM.

On to `COCCN1CCN(C(=O)c2cc(Br)cc([N+](=O)[O-])c2N[C@H]2CN(C(=O)c3cncc(Br)c3)CC2(C)O)CC1` (stereo partly shown) [Example 287], for which, under setting [1], the IC50 was in the range of 10 to 50 nM. On the same count and under the same terms, then `CNc1cncc(C(=O)N2CCC[C@@H](Nc3c(C(=O)N4CCO[C@@H](C(F)(F)F)C4)cc(Br)cc3[N+](=O)[O-])C2)c1` [Example 288], with 10 to 50 nM; and `CNc1cncc(C(=O)N2CCC[C@@H](Nc3c(C(=O)N4CCC(N5C[C@@H](C)O[C@@H](C)C5)CC4)cc(Br)cc3[N+](=O)[O-])C2)c1` [Example 289], with 10 to 50 nM. Same read-out and setting: for `CNc1cncc(C(=O)N2CCC[C@@H](Nc3c(C(=O)N4C[C@H]5C[C@@H]4CO5)cc(Br)cc3[N+](=O)[O-])C2)c1` [Example 290] the value was 10 to 50 nM. Same read-out and setting: then `CNc1cncc(C(=O)N2CCC[C@@H](Nc3c(C(=O)N4C[C@@H]5C[C@H]4CO5)cc(Br)cc3[N+](=O)[O-])C2)c1` [Example 291], with 10 to 50 nM. As for `CNc1cncc(C(=O)N2CCC[C@@H](Nc3c(C(=O)N4C5CCCC4CCC5)cc(Br)cc3[N+](=O)[O-])C2)c1` [Example 292], the IC50 under setting [2] fell in the range of 10 to 50 nM. With `CNc1cncc(C(=O)N2CCC[C@@H](Nc3c(C(=O)N4CCC5(CC4)CCC(C)(C)O5)cc(Br)cc3[N+](=O)[O-])C2)c1` [Example 293], the IC50 under setting [1] fell in the range of 10 to 50 nM. Still for that read-out and setting: for `CNc1cncc(C(=O)N2CCC[C@@H](Nc3c(C(=O)N4CCOC5CC54)cc(Br)cc3[N+](=O)[O-])C2)c1` (stereo partly shown) [Example 294] the value was 10 to 50 nM.
